Square brackets hold non-standard residues; d marks the D form. Peptide text beside a SMILES is read from it. * marks the point of attachment. Mcc = 7-methoxycoumarin-3-carboxyl, COc1ccc2cc(C(=O)*)c(=O)oc2c1; Sta = CC(C)C[C@H](N)[C@@H](O)CC(=O)O; Isovaleryl = CC(C)CC(=O)*
What was measured:
[1] = biological target: T1, MCF-7/6 cell conditioned media trouase (Homo sapiens, UniProt P52888); test: Thiol activation of MCF-7/6 conditioned medium; type: biochemical; conditions: 1 mM DTT, 30 minutes pre-incubation
T1 construct: MCF-7/6 conditioned medium was pre-incubated for 30 minutes at room temperature with dithiothreitol (DTT); endogenous in cells; host or cells: MCF-7/6 conditioned medium
T1 sequence (P52888 whole entry): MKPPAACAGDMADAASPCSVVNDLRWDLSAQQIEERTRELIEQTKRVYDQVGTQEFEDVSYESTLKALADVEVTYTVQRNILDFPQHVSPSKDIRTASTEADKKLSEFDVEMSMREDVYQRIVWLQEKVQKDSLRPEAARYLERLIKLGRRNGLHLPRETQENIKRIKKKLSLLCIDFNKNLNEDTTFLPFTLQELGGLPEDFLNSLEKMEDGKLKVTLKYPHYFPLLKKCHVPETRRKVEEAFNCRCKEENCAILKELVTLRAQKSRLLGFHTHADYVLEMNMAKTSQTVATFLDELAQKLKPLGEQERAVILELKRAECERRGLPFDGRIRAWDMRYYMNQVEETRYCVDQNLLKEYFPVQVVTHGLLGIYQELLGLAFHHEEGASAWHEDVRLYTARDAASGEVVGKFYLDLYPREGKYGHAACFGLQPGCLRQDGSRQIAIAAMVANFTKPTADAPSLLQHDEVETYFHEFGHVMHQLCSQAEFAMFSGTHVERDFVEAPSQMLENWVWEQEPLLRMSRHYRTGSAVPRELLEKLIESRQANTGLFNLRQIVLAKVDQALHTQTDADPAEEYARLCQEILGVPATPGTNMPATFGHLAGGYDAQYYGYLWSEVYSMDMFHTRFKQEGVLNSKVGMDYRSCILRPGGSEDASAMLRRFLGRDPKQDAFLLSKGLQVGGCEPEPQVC

[2] = biological target: T2, MCF-7/6 cell homogenate trouase (Homo sapiens, UniProt P52888); test: Inhibition of MCF-7/6 cell homogenate trouase activity; type: biochemical
T2 construct: the cells (approximately 300 μL wet) were homogenized by grinding in 1.7 mL 10 mM pH 7.2 HEPES buffer; endogenous in cells; host or cells: MCF-7/6 (breast carcinoma)
T2 sequence (P52888 whole entry): as above

[3] = Acute toxicity of N-capped prodrugs, intravenous bolus in mice; type: in vivo; conditions: intravenous bolus of 250 mg/kg (Dox-HCl eq.), three to five mice per group
HL-60 cells = test: 3H-thymidine incorporation proliferation assay; type: cell-based; conditions: 24 hours
Method: Promyelocytic leukemia cells, HL-60, were cultured in RPMI media containing 10% heat inactivated fetal calf serum (FCS). On the day of the study, the cells were collected, washed and resuspended at a concentration of 0.5×10^6 cells/ml in RPMI containing 10% FCS. 100 μl/well of cell suspension was added to 96 well plates. […] Finally, 10 μl of a 100 μCi/ml ^3H-thymidine was added per well and the plates were incubated for 24 hours. The plates were harvested using a 96 well Harvester (Packard Instruments) and counted on a Packard Top Count counter. Four parameter logistic curves were fitted to the ^3H-thymidine incorporation as a function of drug molarity using Prism software to determine IC50 values.

[4] = biological target: T3, partially purified trouase preparation (Homo sapiens, UniProt P52888); test: Extent of cleavage by partially purified trouase preparation (Example 14); type: biochemical; conditions: 12.5 μg/mL, 2 hr, 37° C.
T3 construct: The fractions containing the highest activity levels were pooled (fractions #43-46); host or cells: HeLa
T3 sequence (P52888 whole entry): as above

MCF 7/6 cell homogenate = test: Extent of cleavage by cell homogenate (Example 14); type: biochemical, human; conditions: 12.5 μg/mL, 2 hr, 37° C.
[5] = biological target: T4, recombinant rat TOP (rRTOP) (Rattus norvegicus, UniProt P24155); test: Rates of hydrolysis by recombinant rat TOP; type: biochemical; conditions: for Rate of hydrolysis TOP: 10 μg/mL substrate, pH 7.2 10 mM HEPES, 100 μM MnCl2, 37° C., Suc-βAla-Leu-Ala-Leu-Dox = 1.0
T4 construct: made in house; host or cells: E. coli
T4 sequence (P24155 whole entry): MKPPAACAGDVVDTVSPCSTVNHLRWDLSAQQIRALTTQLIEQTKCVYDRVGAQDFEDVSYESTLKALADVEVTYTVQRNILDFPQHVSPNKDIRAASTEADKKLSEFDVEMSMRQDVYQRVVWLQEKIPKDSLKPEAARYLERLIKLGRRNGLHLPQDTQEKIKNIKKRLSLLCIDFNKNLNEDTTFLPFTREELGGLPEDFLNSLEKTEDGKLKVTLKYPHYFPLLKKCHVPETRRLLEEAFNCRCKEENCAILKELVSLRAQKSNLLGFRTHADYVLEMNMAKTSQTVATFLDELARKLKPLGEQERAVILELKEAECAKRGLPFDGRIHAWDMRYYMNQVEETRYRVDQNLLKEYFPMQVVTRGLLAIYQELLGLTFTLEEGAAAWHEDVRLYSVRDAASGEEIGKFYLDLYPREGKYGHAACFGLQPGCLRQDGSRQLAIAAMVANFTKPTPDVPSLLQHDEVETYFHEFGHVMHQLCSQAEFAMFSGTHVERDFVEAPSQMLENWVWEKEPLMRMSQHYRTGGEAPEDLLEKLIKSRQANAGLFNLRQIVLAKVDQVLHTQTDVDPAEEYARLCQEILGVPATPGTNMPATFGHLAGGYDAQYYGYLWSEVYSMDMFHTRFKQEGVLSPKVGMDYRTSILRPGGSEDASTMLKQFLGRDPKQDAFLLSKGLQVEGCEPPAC

HeLa cell trouase (F1) = biological target: T5, HeLa cell trouase (F1) (Homo sapiens, UniProt P52888); test: Rates of hydrolysis by partially purified HeLa cell trouase (F1); type: biochemical; conditions: 10 μg/mL substrate, pH 7.2 10 mM HEPES, 100 μM MnCl2, 37° C.; Suc-βAla-Leu-Ala-Leu-Dox = 1.0
T5 construct: The fractions containing the highest activity levels were pooled (fractions #43-46); host or cells: HeLa
T5 sequence (P52888 whole entry): as the sequence (P52888 whole entry) above

LS174T tumor = conditions: all dose regimens, Q7D×5
From the text: Statistically significant from vehicle control group: *: p<0.05; **: p<0.01 (unpaired t-test).

[6] = Single dose Maximum Tolerated Dose (SD-MTD) study
MX-1 tumors = type: in vivo, mice
Method: MX-1 tumors which are moderately doxorubicin-sensitive, human breast carcinoma xenografts, were implanted subcutaneously (s.c.) and mice were weighed and tumors were measured (by caliper) at least once a week prior to start of dosing (Day 0), then twice a week during the study. Immediately before the start of dosing (Study Day −2 to Day 0), mice were randomized to various groups based on the weight of the tumors. Mice were euthanized after the tumors reached a cutoff weight of 1.5 g (cancer endpoint). Studies were terminated at Day 60.

LS174T tumors = test: LS174T xenograft, five weekly intravenous doses (Example 17)
Porcine Kidney CD10 = test: Hydrolysis by purified CD10; type: biochemical; conditions: 12.5 μg/mL, 37° C., pH 7.4, 10 hr
[7] = biological target: T6, HeLa cell Fraction 1 trouase (Homo sapiens, UniProt P52888); test: Inhibition of Suc-βAla-Leu-Ala-Leu-Dox hydrolysis by HeLa cell Fraction 1; type: biochemical; conditions: 3 μM
T6 construct: The fractions containing the highest activity levels were pooled (fractions #43-46); host or cells: HeLa
T6 sequence (P52888 whole entry): as above

O[C@H](CS)[C@H](O)CS (racemic) [DTT, dithiothreitol]
activation of Suc-βAla-Leu-Ala-Leu-Dox hydrolysis [1]: tenfold activation

c1cnc2c(c1)ccc1cccnc12 [1,10 phenanthroline]
trouase activity inhibition ([2]; 2 mM 1,10 phenanthroline): 9 fold

CCCNC(=O)[C@H]1O[C@@H]1C(=O)N[C@H](C(=O)N1CCC[C@H]1C(=O)O)[C@@H](C)CC [CA-074]
trouase activity inhibition ([2]; 1 μM): not inhibited

CC(C)C[C@H](NC(=O)[C@H]1O[C@@H]1C(=O)O)C(=O)NCCCCN=C(N)N [E-64]
trouase activity inhibition ([2]; 20 μM E-64): not inhibited

O=C(O)CN(CCN(CC(=O)O)CC(=O)O)CC(=O)O [EDTA]
trouase activity inhibition ([2]; 1 mM EDTA): 9 fold

COc1cccc2c1C(=O)c1c(O)c3c(c(O)c1C2=O)C[C@@](O)(C(=O)CO)C[C@@H]3O[C@H]1C[C@H](NC(=O)[C@H](CC(C)C)NC(=O)[C@H](C)NC(=O)[C@H](CC(C)C)NC(=O)CCNC(=O)CCCC(=O)O)[C@H](O)[C@H](C)O1 [Gl-βAla-Leu-Ala-Leu-Dox]
survival up to 8 days [3]: all animals survived

COc1cccc2c1C(=O)c1c(O)c3c(c(O)c1C2=O)C[C@@](O)(C(=O)CO)C[C@@H]3O[C@H]1C[C@H](NC(=O)[C@@H](N)CC(C)C)[C@H](O)[C@H](C)O1 [Leucyl-Doxorubicin]
IC50 (HL-60 cells): 0.222 µM

COc1cccc2c1C(=O)c1c(O)c3c(c(O)c1C2=O)CC(O)(C(C)=O)CC3OC1CC(NC(=O)C(CC(C)C)NC(=O)C(C)NC(=O)C(CC(C)C)NC(=O)C(C)NC(=O)CCC(=O)O)C(O)C(C)O1 (stereo not drawn) [Suc-Ala-Leu-Ala-Leu-Dnr]
extent of cleavage versus the P2 β-alanine compound [4]: 0.6 fold | extent (rate) of cleavage versus the P2 β-alanine compound (MCF 7/6 cell homogenate): 1.3 fold

CC[C@H](C)[C@H](NC(=O)CCC(=O)O)C(=O)N[C@@H](C)C(=O)N[C@@H](CC(C)C)C(=O)N[C@H]1C[C@H](O[C@H]2C[C@](O)(C(=O)CO)Cc3c(O)c4c(c(O)c32)C(=O)c2c(OC)cccc2C4=O)O[C@@H](C)[C@H]1O [Suc-Ile-Ala-Leu-Dox]
Rate of hydrolysis TOP [5]: 0 | Rate of hydrolysis (F1) (HeLa cell trouase (F1)): 0

CCC(C)C(NC(=O)CCC(=O)O)C(=O)N(C)C(C)C(=O)NC(CC(C)C)C(=O)NC1CC(OC2CC(O)(C(=O)CO)Cc3c(O)c4c(c(O)c32)C(=O)c2c(OC)cccc2C4=O)OC(C)C1O (stereo not drawn) [Suc-Ile-NmAla-Leu-Dox]
Rate of hydrolysis TOP [5]: 0 | Rate of hydrolysis (F1) (HeLa cell trouase (F1)): 0

COc1cccc2c1C(=O)c1c(O)c3c(c(O)c1C2=O)C[C@@](O)(C(=O)CO)C[C@@H]3O[C@H]1C[C@H](NC(=O)CNC(=O)[C@H](C)NC(=O)[C@H](CC(C)C)NC(=O)CCC(=O)O)[C@H](O)[C@H](C)O1 [Suc-Leu-Ala-Gly-Dox]
Rate of hydrolysis TOP [5]: 0.43 | Rate of hydrolysis (F1) (HeLa cell trouase (F1)): 0.4

COc1cccc2c1C(=O)c1c(O)c3c(c(O)c1C2=O)C[C@@](O)(C(=O)CO)C[C@@H]3O[C@H]1C[C@H](NC(=O)[C@H](CC(C)C)NC(=O)[C@H](C)NC(=O)[C@H](CC(C)C)NC(=O)CCC(=O)O)[C@H](O)[C@H](C)O1 [Suc-Leu-Ala-Leu-Dox]
Rate of hydrolysis TOP [5]: 0.67 | Rate of hydrolysis (F1) (HeLa cell trouase (F1)): 0.78

COc1cccc2c1C(=O)c1c(O)c3c(c(O)c1C2=O)CC(O)(C(=O)CO)CC3OC1CC(NC(=O)C(CC(C)C)NC(=O)C(C)N(C)C(=O)C(CC(C)C)NC(=O)CCC(=O)O)C(O)C(C)O1 (stereo not drawn) [Suc-Leu-NmAla-Leu-Dox]
Rate of hydrolysis TOP [5]: 0 | Rate of hydrolysis (F1) (HeLa cell trouase (F1)): 0

COc1cccc2c1C(=O)c1c(O)c3c(c(O)c1C2=O)C[C@@](O)(C(=O)CO)C[C@@H]3O[C@H]1C[C@H](NC(=O)[C@H](CC(C)C)NC(=O)[C@H](C)NC(=O)[C@H](CCSC)NC(=O)CCC(=O)O)[C@H](O)[C@H](C)O1 [Suc-Met-Ala-Leu-Dox]
Rate of hydrolysis TOP [5]: 0.99 | Rate of hydrolysis (F1) (HeLa cell trouase (F1)): 0.49

CC[C@H](C)[C@H](NC(=O)CCNC(=O)CCC(=O)O)C(=O)N[C@@H](C)C(=O)N[C@@H](CC(C)C)C(=O)N[C@H]1C[C@H](O[C@H]2C[C@](O)(C(=O)CO)Cc3c(O)c4c(c(O)c32)C(=O)c2c(OC)cccc2C4=O)O[C@@H](C)[C@H]1O [Suc-βAla-Ile-Ala-Leu-Dox]
Rate of hydrolysis TOP [5]: <0.03 | Rate of hydrolysis (F1) (HeLa cell trouase (F1)): 0.025

COc1cccc2c1C(=O)c1c(O)c3c(c(O)c1C2=O)CC(O)(C(=O)CO)CC3OC1CC(NC(=O)C(C)NC(=O)C(C)NC(=O)C(CC(C)C)NC(=O)CCNC(=O)CCC(=O)O)C(O)C(C)O1 (stereo not drawn) [Suc-βAla-Leu-Ala-Ala-Dox]
cleavage by TOP (presumed) [5]: well cleaved

COc1cccc2c1C(=O)c1c(O)c3c(c(O)c1C2=O)CC(O)(C(=O)CO)CC3OC1CC(NC(=O)CNC(=O)C(C)NC(=O)C(CC(C)C)NC(=O)CCNC(=O)CCC(=O)O)C(O)C(C)O1 (stereo not drawn) [Suc-βAla-Leu-Ala-Gly-Dox]
cleavage by TOP [5]: well cleaved

COc1cccc2c1C(=O)c1c(O)c3c(c(O)c1C2=O)C[C@@](O)(C(=O)CO)C[C@@H]3O[C@H]1C[C@H](NC(=O)[C@H](CC(C)C)NC(=O)[C@H](C)NC(=O)[C@H](CC(C)C)NC(=O)CCNC(=O)CCC(=O)O)[C@H](O)[C@H](C)O1 [Suc-βAla-Leu-Ala-Leu-Dox, succinyl-β-Ala-Leu-Ala-Leu-Dox]
tolerability of dose regimens (LS174T tumor): very well tolerated | survival up to 8 days [3]: all animals survived | mortality by Day 35 ([6]; 75 mg/kg dose group): 40% | acute toxicity within 24 hours ([6]; 50, 75 or 100 mg/kg intravenous bolus): no acute toxicity | body weight loss (of initial weight) ([6]; 75 and 100 mg/kg dose groups): > 20% | SD-MTD (mg/kg Dox =) ([6]; doxorubicin equivalents): 28 mg/kg Dox = | toxicity profile compared with doxorubicin ([6]; preliminary observations): lack of evidence of characteristic GI-toxicity, cardiotoxicity and myleosuppression of doxorubicin | mice with up to 20% weight loss (MX-1 tumors; 71 mg/kg group, after Day 46): one out of ten | tolerability of dose regimens (MX-1 tumors; all dose regimens, 5 doses, one every 7 days): very well tolerated | tolerability under repeat-dose levels (LS174T tumors): safe and well-tolerated

COc1cccc2c1C(=O)c1c(O)c3c(c(O)c1C2=O)CC(O)(C(=O)CO)CC3OC1CC(NC(=O)C(CC(C)C)NC(=O)C(Cc2ccc(O)cc2)NC(=O)C(CC(C)C)NC(=O)CCNC(=O)CCC(=O)O)C(O)C(C)O1 (stereo not drawn) [Suc-βAla-Leu-Tyr-Leu-Dox]
% hydrolysis/10 hr (Porcine Kidney CD10): 0% | Fraction hydrolyzed relative to standard (Porcine Kidney CD10): 0

CO[C@@H]1[C@H](OC(=O)/C=C/C=C/C=C/C=C/C(=O)O)CC[C@]2(CO2)[C@H]1[C@@]1(C)O[C@@H]1CC=C(C)C [fumagillin]
carcinoma cell trouase inhibition ([2]; concentration not given): not

CC(=O)N[C@@H](CC(C)C)C(=O)N[C@@H](CC(C)C)C(=O)N[C@H](C=O)CCCNC(=N)N [leupeptin]
trouase activity inhibition ([2]; 20 μM leupeptin): not inhibited

CC(C)CC(=O)N[C@H](C(=O)N[C@H](C(=O)N[C@@H](CC(C)C)[C@@H](O)CC(=O)N[C@@H](C)C(=O)N[C@@H](CC(C)C)[C@@H](O)CC(=O)O)C(C)C)C(C)C [pepstatin] (Isovaleryl-VV[Sta]A[Sta]-OH)
trouase activity inhibition ([2]; 1.5 μM): not inhibited

Mcc-Pro-Leu-Gly-Pro-D-Lys(DNP) (Mcc-PLGP-{dK(DNP)}) [quenched fluorescent substrate; Mcc = 7-Methoxycoumarin-3-carboxyl, DNP dinitrophenyl, reference compound]
Rate of hydrolysis TOP [5]: 1.1 | Rate of hydrolysis (F1) (HeLa cell trouase (F1)): 1.5

N-[1-(RS)-carboxypropyl-Ala-Ala-Phe-p-aminobenzoate [Cpp-AAF-pAB]
inhibition of Suc-βAla-Leu-Ala-Leu-Dox hydrolysis [7]: completely inhibited

aminoethylbenzenesulfonylfluoride
trouase activity inhibition ([2]; 50 μM): not inhibited

aprotinin
trouase activity inhibition ([2]; 4 μg/mL): not inhibited

From patent publication US8034787B2, “Enzyme-cleavable prodrug compounds” (Medarex, Inc., priority 1998, dated 2011)
